Consider five molecules from paper PMC6842385, “Identifying new topoisomerase II poison scaffolds by combining publicly available toxicity data and 2D/3D-based virtual screening” (Journal of Cheminformatics, 2019).

Molecules are shown by their SMILES.

The subject of the experiment is T1, Top2.
T1 construct: gene TOP2A; Top2 used in TopoGEN decatenation assay
Briefly: kDNA decatenation assay, agarose gel. The conditions noted are these: kinetoplast DNA 0.2 μg in 20 μl, 5 mM ATP, 10 mM MgCl2, 150 mM NaCl, pH 8.0, 37 °C, 30 min. It counts as biochemical. From the text: kDNA decatenation assay, agarose gel on Top2

Usually IC50 stands for the midpoint of a concentration-inhibition curve. Lower therefore signals greater potency in that assay. Consider `COc1cccc2c(N)c3cccc(C(=O)NCCN(C)C)c3nc12` [compound 691240, NSC691240], for which the IC50 came to 12.1 µM.

On to `CCN(CC)CCNc1ccc2nc(C)n3c4ccc(O)cc4c(=O)c1c23` [compound 637992, NSC637992], for which half-maximal inhibition (IC50) required 3.3 µM.

As for `CCN(CC)CCNc1ccc(C)c2sc3ccc(O)cc3c(=O)c12` [compound 317921, NSC317921], the IC50 amounted to 7.5 µM.

In turn, `CCN(CC)CCNc1ccc2ncn3c4c(OC)ccc(OC)c4c(=O)c1c23` [compound 660839, NSC660839] had an IC50 above 100 µM.

Take `O=C1c2c(O)ccc(O)c2C(=O)c2c(NCCNCCO)ccc(NCCNCCO)c21` [compound 301739, mitoxantrone]: the IC50 (positive control) stood at 3.3 µM.
